Experiments:
[1] = test system: subcutaneously pentetrazol-injected model (scPTZ); test: Subcutaneously pentetrazol-injected model (scPTZ) test; type: in vivo, mice; settings: pentetrazol 85 mg/kg s.c. after 1 hour; for responders at 100 mg/kg / responders at 50 mg/kg: Mus musculus, po, 1 h, read-out: scPTZ (positive number/tested number) (converted); for responders at 50 mg/kg: 50 mg/kg oral; for anticonvulsant action in subcutaneously pentetrazol-injected model (scPTZ) test: mice, oral 50 or 100 mg/kg
Text: In order to evaluate the antiepileptic activity of each drug, maximum electroshock seizure (MES) model, subcutaneously pentetrazol-injected model (scPTZ), and amygdala kindling model in rats were used because they show a good clinical prediction. […] Test with Subcutaneously Pentetrazol-Injected Model (scPTZ) Similar to Test 1, Test 2 evaluates the anticonvulsant action of medicaments. However, unlike Test 1, animal model used herein represents the clinical phenotypes of generalized absence seizure and myoclonic seizure. Test compounds (50 or 100 mg/kg) were orally administered to Slc: ddY male mice (3 mice in each group, body weight 20-30 g). After an hour, pentetrazol (85 mg/kg) was subcutaneously administered. […] To the control mice, 0.5% tragacanth solution or 0.5% methylcellulose solution was administered.

[2] = test system: maximum electroshock seizure (MES) model; test: Maximum electroshock seizure (MES) model test; type: in vivo, mice; settings: for responders at 50 mg/kg / responders at 100 mg/kg: Mus musculus, po, 1 h, Slc: ddY male mice, 3 per group, electrical stimulation 1 hour after administration, inhibition of hind limb extension, read-out: MES (positive number/tested number) (converted); for responders at 50 mg/kg: 50 mg/kg oral; for responders at 100 mg/kg: 100 mg/kg oral; for anticonvulsant action in maximum electroshock seizure (MES) model test: mice, oral 50 or 100 mg/kg, 1 hour after administration
Text: In order to evaluate the antiepileptic activity of each drug, maximum electroshock seizure (MES) model, subcutaneously pentetrazol-injected model (scPTZ), and amygdala kindling model in rats were used because they show a good clinical prediction.
Test 1: Test with Maximum Electroshock Seizure (MES) Model
Test 1 evaluates the anticonvulsant action of medicaments. Animal model used herein represents the clinical phenotypes of generalized tonic seizure and secondarily generalized tonic-clonic seizure. Test compounds (50 or 100 mg/kg) were orally administered to Slc: ddY male mice (3 mice in each group, body weight 20-30 g). After an hour of administration, their corneas were electrically stimulated (60 Hz, 25 mA, 0.2 second) to induce tonic convulsion (tonic extensor in their hind limbs). […] To the control mice, 0.5% tragacanth solution or 0.5% methylcellulose solution was administered.

[3] = 100 mg/kg oral, Slc: ddY male mice, 3 per group, observed 30 minutes for clonic convulsion
[4] = Slc: ddY male mice, 3 per group, observed 30 minutes for clonic convulsion

Structure (SMILES) | responders at 100 mg/kg [1, 3] | responders at 50 mg/kg [2] | responders at 100 mg/kg [2] | responders at 50 mg/kg [1, 4] | anticonvulsant action in subcutaneously pentetrazol-injected model (scPTZ) test [1] | anticonvulsant action in maximum electroshock seizure (MES) model test [2] | scPTZ (positive number/tested number) [1, 3]
NC(=O)Cc1cc(Cl)ccc1-c1ccccc1 [Example 35] | 0% | 0% | 66.7% |  |  |  | 
CNC(=O)Cc1cc(Cl)ccc1-c1ccccc1 [Example 36] | 33.3% | 0% | 100% |  |  |  | 
CCNC(=O)Cc1cc(Cl)ccc1-c1ccccc1 [Example 37] | 33.3% |  | 0% |  |  |  | 
CN(C)C(=O)Cc1cc(Cl)ccc1-c1ccccc1F [Example 38] | 100% |  | 0% | 0% |  |  | 
CNC(=O)Cc1ccc(F)cc1-c1ccccc1 [Example 40] | 0% | 33.3% | 100% |  |  |  | 
CNC(=O)Cc1ccc(F)cc1-c1ccccc1F [Example 42] | 66.7% |  | 33.3% | 33.3% |  |  | 
NC(=O)Cc1ccc(F)cc1-c1cccc(Cl)c1 [Example 43] | 66.7% | 66.7% | 66.7% | 33.3% |  |  | 
NC(=O)Cc1cc(F)ccc1-c1ccccc1 [Example 44, 2-(4-fluorobiphenyl-2-yl)acetamide] | 0% | 100% | 100% |  |  |  | 
CNC(=O)Cc1cc(F)ccc1-c1ccccc1 [Example 45, 2-(4-fluorobiphenyl-2-yl)-N-methylacetamide] | 0% | 100% | 100% |  |  |  | 
CNC(=O)Cc1cc(F)ccc1-c1ccccc1F [Example 47, 2-(2′,4-difluorobiphenyl-2-yl)-N-methylacetamide] | 0% | 100% | 100% |  |  |  | 
NC(=O)Cc1cc(F)ccc1-c1cccc(Cl)c1 [Example 48, 2-(3′-chloro-4-fluorobiphenyl-2-yl)acetamide] | 100% | 33.3% | 100% | 33.3% |  |  | 
NC(=O)Cc1ccccc1-c1ccc(Br)cc1 [Example 49, 2-(4′-Bromobiphenyl-2-yl)acetamide] | 66.7% | 0% | 66.7% | 0% |  |  | 
NC(=O)Cc1ccccc1-c1ccc(C(F)(F)F)cc1 [Example 51] | 33.3% | 0% | 100% |  |  |  | 
CNC(=O)Cc1ccccc1-c1ccc(Br)cc1 [Example 53, 2-(4′-Bromobiphenyl-2-yl)-N-methylacetamide] | 0% | 66.7% | 100% |  |  |  | 
CNC(=O)Cc1ccccc1-c1ccccc1 [Example 54, 2-(biphenyl-2-yl)-N-methylacetamide] | 33.3% | 100% | 100% |  |  |  | 
CNC(=O)Cc1ccccc1-c1cccc(Br)c1 [Example 55] | 0% | 0% | 100% |  |  |  | 
CC(C(N)=O)c1ccccc1-c1ccccc1 (centres unmarked) [Example 56, 2-(Biphenyl-2-yl)propanamide] | 66.7% | 0% | 100% | 100% |  |  | 
CNC(=O)C(C)c1ccccc1-c1ccccc1 (centres unmarked) [Example 57, 2-(biphenyl-2-yl)-N-methyl propanamide] | 66.7% | 66.7% | 66.7% | 66.7% | anticonvulsant action was observed | anticonvulsant action was observed | 
CNC(=O)C(C)c1ccccc1-c1ccccc1F (centres unmarked) [Example 58, 2-(2′-fluorobiphenyl-2-yl)-N-methyl propanamide] | 66.7% | 0% | 66.7% | 0% |  |  | 

Structure (SMILES) | responders at 100 mg/kg [1, 3] | responders at 50 mg/kg [2] | responders at 100 mg/kg [2] | responders at 50 mg/kg [1, 4] | anticonvulsant action in subcutaneously pentetrazol-injected model (scPTZ) test [1] | anticonvulsant action in maximum electroshock seizure (MES) model test [2] | scPTZ (positive number/tested number) [1, 3]
COC(C(N)=O)c1ccccc1-c1ccccc1 (centres unmarked) [Example 61, 2-(Biphenyl-2-yl)-2-methoxyacetamide] | 100% | 0% | 66.7% | 0% |  |  | 
CNC(=O)C(OC)c1ccccc1-c1ccccc1 (centres unmarked) [Example 62, 2-(biphenyl-2-yl)-2-methoxy-N-methylacetamide] | 33.3% | 66.7% | 100% |  |  |  | 
COC(C(=O)N(C)C)c1ccccc1-c1ccccc1 (centres unmarked) [Example 63, 2-(biphenyl-2-yl)-2-methoxy-N,N-dimethylacetamide] | 66.7% | 0% | 66.7% | 33.3% |  |  | 
NC(=O)Cc1ccccc1-c1ccc(F)c(Cl)c1 [Example 65] | 33.3% |  | 66.7% |  |  |  | 
NC(=O)Cc1ccccc1-c1ccc(Cl)c(F)c1 [Example 66] | 33.3% |  | 66.7% |  |  |  | 
NC(=O)Cc1ccccc1-c1cc(F)cc(F)c1F [Example 67, 2-(2′,3′,5′-trifluorobiphenyl-2-yl)acetamide] | 66.7% | 66.7% | 66.7% | 66.7% | anticonvulsant action was observed | anticonvulsant action was observed | 
NC(=O)Cc1ccccc1-c1ccc(Cl)cc1F [Example 68, 2-(4′-chloro-2′-fluorobiphenyl-2-yl)acetamide] | 66.7% | 0% | 100% | 0% |  |  | 
NC(=O)Cc1ccccc1-c1cc(F)c(F)cc1F [Example 69] | 66.7% |  | 33.3% |  |  |  | 
NC(=O)Cc1ccccc1-c1ccc(OC(F)(F)F)c(F)c1 [Example 70, 2-[3′-fluoro-4′-(trifluoromethoxy)biphenyl-2-yl]acetamide] | 66.7% | 33.3% | 100% | 66.7% |  |  | 
NC(=O)Cc1ccccc1-c1cc(C(F)(F)F)cc(C(F)(F)F)c1 [Example 72] | 0% |  | 66.7% |  |  |  | 
NC(=O)Cc1ccccc1-c1cc(F)cc(C(F)(F)F)c1 [Example 73, 2-[3′-fluoro-5′-(trifluoromethyl)biphenyl-2-yl]acetamide] | 100% | 33.3% | 100% | 0% |  |  | 
NC(=O)Cc1ccccc1-c1ccc(C(F)(F)F)cc1C(F)(F)F [Example 74] | 33.3% |  | 66.7% |  |  |  | 
NC(=O)Cc1ccccc1-c1ccc(Cl)c(C(F)(F)F)c1 [Example 75, 2-[4′-chloro-3′-(trifluoromethyl)biphenyl-2-yl]acetamide] | 66.7% | 0% | 100% | 33.3% |  |  | 
NC(=O)Cc1ccccc1-c1ccc(OC(F)(F)F)cc1 [Example 76, 2-[4′-(trifluoromethoxy)biphenyl-2-yl]acetamide] | 66.7% | 0% | 100% | 33.3% |  |  | 
CS(=O)(=O)c1ccc(-c2ccccc2CC(N)=O)cc1 [Example 77] |  |  | 0% |  |  |  | 2/3
NC(=O)Cc1ccccc1-c1cccc(OC(F)(F)F)c1 [Example 79, 2-[3′-(trifluoromethoxy)biphenyl-2-yl]acetamide] | 100% | 33.3% | 100% | 33.3% |  |  | 
Cc1cc(Cl)cc(-c2ccccc2CC(N)=O)c1F [Example 81] | 0% |  | 33.3% |  |  |  | 
NC(=O)Cc1ccccc1-c1cc(F)ccc1C(F)(F)F [Example 82] | 100% |  | 33.3% |  |  |  | 
NC(=O)Cc1ccccc1-c1cc(C(F)(F)F)ccc1F [Example 83, 2-[2′-fluoro-5′-(trifluoromethyl)biphenyl-2-yl]acetamide] | 66.7% | 0% | 66.7% | 33.3% |  |  | 

From patent US20120142771A1, “BIPHENYLACETAMIDE DERIVATIVE” (Dainippon Sumitomo Pharma Co., Ltd., priority 2008, published 2012)
